Test results reported in PubChem BioAssay (NCI).
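1) Cells in 96-well plates. 2) Compound, 48 h, 5 concentrations. 3) Linear interpolation between surrounding doses. 4) Unreached endpoint = highest concentration. Definition used: TGI = concentration required for complete inhibition of growth.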

Columns and labels:
Assay in all cases: growth of human tumour cells (NCI), 48 h
[1] = tested on: TK-10 renal
[2] = tested on: HOP-62 NSCLC
[3] = tested on: UACC-257 melanoma
[4] = tested on: SNB-19 CNS
[5] = tested on: SK-MEL-5 melanoma
[6] = tested on: OVCAR-5 ovarian
[7] = tested on: CCRF-CEM leukemia
[8] = tested on: SW-620 colon
[9] = tested on: NCI/ADR-RES ovarian
[10] = tested on: LOX IMVI melanoma
[11] = tested on: SNB-75 CNS
[12] = tested on: T-47D breast
[13] = tested on: SK-MEL-2 melanoma
[14] = tested on: MDA-N
[15] = tested on: RXF 393 renal
[16] = tested on: NCI-H23 lung
[17] = tested on: SR leukemia
[18] = tested on: UO-31 renal
[19] = tested on: HCC-2998 colon

| SMILES | TGI [1] [µM] | TGI [2] [µM] | TGI [3] [µM] | TGI [4] [µM] | TGI [5] [µM] | TGI [6] [µM] | TGI [7] [µM] | TGI [8] [µM] | TGI [9] [µM] | TGI [10] [µM] | TGI [11] [µM] | TGI [12] [µM] | TGI [13] [µM] | TGI [14] [µM] | TGI [15] [µM] | TGI [16] [µM] | TGI [17] [µM] | TGI [18] [µM] | TGI [19] [µM] |
| --- | --- | --- | --- | --- | --- | --- | --- | --- | --- | --- | --- | --- | --- | --- | --- | --- | --- | --- | --- |
| CO[C@H]1C[C@H](O[C@H]2CC[C@]3(C=O)[C@H]4CC[C@]5(C)[C@@H](C6=CC(=O)OC6)CC[C@]5(O)[C@@H]4CC[C@]3(O)C2)O[C@H](C)[C@H]1O[C@@H]1O[C@H](CO[C@@H]2O[C@H](CO)[C@@H](O)[C@H](O)[C@H]2O)[C@@H](O)[C@H](O)[C@H]1O | 0.133 | 0.0388 | 1.27 | 0.83 | 0.124 | 0.199 | > 100 | 0.179 | 0.15 | 0.137 | 0.437 | 0.385 | 0.907 | 0.286 | 0.0802 | 0.0531 | 0.419 | 0.144 |  |
| CN(C)N1C(=O)CC2(CCN(CCCC(=O)c3ccc(F)cc3)CC2)C1=O | > 100 | > 100 | > 100 | > 100 | > 100 | > 100 |  | > 100 | > 100 | > 100 | > 100 | > 100 | > 100 | > 100 | > 100 | > 100 | > 100 | > 100 |  |
| COc1cc(C2SC(N)=Nc3c2c(C)nn3C(=O)Cc2ccccc2)ccc1O (centres undefined) | > 100 | > 100 | > 100 | > 100 | > 100 |  | > 100 | > 100 |  | > 100 | 75.2 | > 100 |  | > 100 |  | > 100 | > 100 | > 100 | > 100 |
| CCNC(=O)Cc1nc2c(=O)[nH]cnc2n1C1OC(CO)C(O)C1O (centres undefined) | > 100 | > 100 | > 100 | > 100 | > 100 | > 100 | > 100 | > 100 | > 100 | > 100 | > 100 | > 100 | > 100 | > 100 | > 100 | > 100 |  | > 100 | > 100 |
| CC(C)[C@H](NC(=O)[C@@H](O)[C@H](N)Cc1ccccc1)C(=O)N[C@@H](Cc1ccccc1)C(=O)O | > 100 | > 100 | > 100 | > 100 | > 100 | > 100 | > 100 | > 100 | > 100 | > 100 | > 100 | > 100 | > 100 | > 100 |  | > 100 | > 100 | > 100 | > 100 |
| Clc1ccc(-c2cc(-c3nc4ccccc4[nH]3)no2)cc1 | 40 | 38.2 | 36.4 | 36 | 34.7 | 40.8 | 57.4 | 46.5 | 73.5 | 35.5 | 44.5 | 37.7 | 34.7 | 33.8 |  | 42.3 | 59.7 | 34.7 | 33.5 |
| Cc1cc2nc3c(C#N)c(-c4ccccc4)cc(Nc4cccc(C(F)(F)F)c4)n3c2cc1C | 33.6 | 35.2 | 54.3 | 80.7 | 19.8 | 47.1 | > 100 | 20.7 | 20.2 | > 100 | 72.9 | > 100 | 12.7 | 24.7 | 22.9 | > 100 |  | 25.8 | 14.3 |
| COC(=O)c1cc(/C=C2\Cc3cc4c(cc3C2=O)CCC4)cc2c1CCC2 | > 100 | > 100 | > 100 | > 100 |  | > 100 | > 100 | > 100 | > 100 | > 100 | > 100 | > 100 | > 100 | > 100 |  | > 100 | > 100 | > 100 | > 100 |
| CCC(C)(C)c1ccc(Oc2cccc(C(=O)O)c2)cc1 | > 100 | > 100 | > 100 | > 100 | > 100 | > 100 | 68 | > 100 | > 100 | > 100 | > 100 | > 100 | > 100 | > 100 | > 100 | > 100 |  | > 100 | > 100 |
| N=C(N)c1ccc(-c2ccc(-c3ccc(C(=N)N)cc3)o2)cc1 | 63 | > 100 | 87.2 | > 100 | 33 | 99.2 | > 100 | > 100 | > 100 |  | > 100 | 74.9 | 59.2 | > 100 | > 100 | 87 | > 100 | 68.1 |  |
| CC[C@]12C=CCN3CCC4(c5cc(N=Nc6ccc([N+](=O)[O-])cc6)c(OC)cc5N(C)[C@H]4[C@@](O)(C(=O)OC)[C@@H]1OC(C)=O)[C@@H]32 (some centres undefined) | 63 | 43.6 | 56.5 | > 100 | 50.1 | 28.2 | 26.6 | > 100 | 42.2 | 47.3 | 35.1 | > 100 | 43 | 38.6 | 35.6 | 32.4 | 32 | 25.9 |  |
| Cn1c(=O)c2c(nc3sc4ncccc4c(=O)n32)n(C)c1=O | > 100 | > 100 | > 100 | > 100 | > 100 | > 100 | > 100 | > 100 | > 100 | > 100 | > 100 | > 100 | > 100 | > 100 | > 100 | > 100 |  | > 100 | > 100 |
| CO/N=C/c1c(-c2ccc(Cl)cc2)c(/C=N/OC)n2c1sc1ccccc12 | > 100 | > 100 | > 100 | > 100 | > 100 | > 100 | > 100 | > 100 | > 100 | > 100 | > 100 | > 100 | > 100 | > 100 | > 100 | > 100 |  | > 100 | > 100 |
| O=C(O)CCCC#CCCCC(=O)O | > 100 | > 100 | > 100 | > 100 | > 100 | > 100 |  |  | > 100 | > 100 | > 100 | > 100 | > 100 | > 100 | > 100 | > 100 | > 100 | > 100 | > 100 |
| CC1CC(=O)NC2CC1C2(C)C (centres undefined) | > 100 |  | > 100 | > 100 | > 100 | > 100 | > 100 | > 100 |  | > 100 | > 100 | > 100 | > 100 | > 100 | > 100 | > 100 | > 100 | > 100 | > 100 |
| [O-][n+]1onc2c1-c1nonc1CC2 | 56.4 | 61.2 | 59.4 | > 100 | 78.6 | > 100 | > 100 | > 100 | > 100 | 79 |  | > 100 | 65.2 | > 100 | 69.5 | 61.4 | > 100 | > 100 | > 100 |
| Cc1c(C)c(C)c(CSC(=N)N)c(C)c1C | 28.4 | 29.1 | 27.3 | 27.9 | 26.6 | 29.8 | 35.4 | 29 | 30.6 | 79.2 | 29 | 36.6 | 27.8 | 40.3 | 33.2 | 33.4 |  | 20.2 | 27.8 |
| Oc1ccc2c3c1OC1c4[nH]c5c(c4CC4(O)C(C2)N(CC2CC2)CC[C@]314)CC1(O)C2Cc3ccc(O)c4c3[C@@]1(CCN2CC1CC1)C5O4 (some centres undefined) | 44.6 | > 100 | 37.4 | 64 | > 100 | 74.9 |  | 53.8 | > 100 | 83.2 |  | 47.6 | 44.8 | 38.9 | 82.2 | > 100 | 57.5 | > 100 | 36.7 |
| Cc1ccc(S(=O)(=O)N/N=C2/CC[C@H](C(C)(C)C)C[C@@H]2C)cc1 | 30.4 | 26.9 | 27 | 32.6 | 26.8 | 32.5 | 38.8 | 50.7 | 31.2 | 27.9 | 39 | 25.5 | 32.4 | 34.3 |  | 36.8 | > 100 | 26.6 | 33.5 |
| CC(C)=CCC/C(C)=C/CC/C(C)=C/CC/C(C=O)=C/CC/C(C)=C\CC/C(C)=C/CC/C(C)=C/CC/C(C)=C/CC1=CC(=O)C=CC1=O | > 100 | > 100 | > 100 | > 100 | > 100 | > 100 | > 100 | > 100 | > 100 | > 100 | 96.1 | 69.4 | > 100 | > 100 |  | > 100 | > 100 | > 100 | > 100 |
| COc1cc(OC)nc(NC(=O)NS(=O)(=O)c2cccc3ncn(C)c(=O)c23)n1 | > 100 | > 100 | > 100 | > 100 | > 100 | > 100 | > 100 | > 100 | > 100 | > 100 | > 100 | > 100 | > 100 | > 100 | > 100 | > 100 | > 100 | > 100 |  |
| CCC1CCN=C(Cn2cc(C)c(=O)[nH]c2=O)N1 (centres undefined) | > 100 | > 100 | > 100 | > 100 | > 100 | > 100 | > 100 | > 100 | > 100 | > 100 | > 100 | > 100 | > 100 | > 100 | > 100 | > 100 |  | > 100 | > 100 |
| CC1(C)CC[C@]2(C(=O)O)CC[C@]3(C)C(=CC[C@@H]4[C@@]5(C)CC[C@@H]6OC(C)(C)OC[C@@]6(C)[C@@H]5CC[C@]43C)[C@H]2C1 | 32.7 | 22.9 | 31.8 | 96.2 |  | 32.2 | 37.1 | 29 | > 100 | 20.7 | 27.7 | 38.8 | 32.6 | 27 |  |  | 34 | 25.6 | 27.5 |
| O=C(Nc1ccc(F)cc1)c1cc2ccc(O)cc2oc1=Nc1cccc(F)c1 |  | > 100 | > 100 |  | 35.6 | > 100 | 71.8 | > 100 | > 100 | 52.6 |  | > 100 | > 100 | > 100 |  | 55.7 | > 100 |  | > 100 |
| COc1ccc2nc(-c3ccc(O)cc3)cn2c1 | > 100 | > 100 |  | > 100 | 62.6 | > 100 | > 100 | > 100 | > 100 | > 100 | > 100 | > 100 | > 100 | > 100 | > 100 | > 100 | > 100 | > 100 |  |
